Assay: xn = mol fraction of the nth substance listed
Conditions: 100 kPa

CCCC[n+]1ccn(C)c1.O=S(=O)([N-]S(=O)(=O)C(F)(F)F)C(F)(F)F + CCO
viscosity [mPa·s]
Conditions	x1 = 0.2129	x1 = 0.2688	x1 = 0.4215	x1 = 0.4606	x1 = 0.5784	x1 = 0.6609	x1 = 0.747	x1 = 0.8264	x1 = 1
307.85 K	–	–	–	–	–	15.81	19.9	23.3	34.7
308.15 K	3.69	–	8.06	9.01	13.11	–	19.7	23	34.3
308.45 K	–	4.5	7.99	8.94	13	–	–	22.8	33.9
308.76 K	3.64	4.47	–	8.86	–	15.39	–	22.5	33.5
309.06 K	3.61	–	7.86	8.79	12.77	15.25	19.2	22.3	33.1
309.36 K	3.59	4.4	7.8	8.72	12.66	15.11	19	22.1	32.8
309.67 K	3.56	4.37	–	8.65	12.55	14.98	18.8	21.8	–
309.97 K	3.54	4.34	7.67	–	12.44	14.85	–	21.6	32.1
310.27 K	3.52	4.31	7.61	8.51	12.33	14.71	18.4	21.4	31.7
310.58 K	3.49	4.28	7.55	8.44	12.22	14.58	–	21.1	31.4
310.88 K	–	4.25	7.49	8.38	–	14.45	18.09	–	31
311.18 K	3.44	4.22	7.43	–	12.01	14.33	17.92	20.7	30.7
311.48 K	–	4.19	7.37	8.24	11.91	14.2	17.75	20.5	30.4
311.79 K	3.39	4.16	7.31	–	–	14.07	–	–	30.1
312.09 K	3.37	–	7.25	8.11	11.7	–	17.42	20.1	29.7
312.39 K	3.35	–	7.19	–	11.6	13.83	17.26	19.8	29.4
312.7 K	3.32	–	7.13	7.98	11.5	13.7	17.1	19.6	29.1
313 K	3.3	4.04	7.08	7.92	11.4	13.58	–	19.4	–
313.3 K	3.28	4.02	–	7.86	11.3	13.46	16.78	19.2	28.5
313.61 K	3.26	3.99	6.96	7.8	11.21	13.34	16.62	–	28.2
313.91 K	3.23	3.96	6.91	7.74	11.11	–	–	18.8	27.9
314.21 K	–	–	6.86	7.68	11.02	13.11	–	18.6	27.6
314.52 K	3.19	3.9	6.8	7.62	–	13	–	18.5	27.3
314.82 K	3.17	3.88	6.75	7.56	10.83	–	16.02	18.3	27.1
315.12 K	3.14	3.85	6.7	7.5	10.74	12.77	15.87	–	26.8
315.42 K	3.12	–	6.64	7.44	10.64	–	15.72	17.9	26.5
315.73 K	3.1	3.79	–	7.38	–	–	15.58	17.7	26.2
316.03 K	3.08	–	6.54	7.33	10.46	12.44	15.43	17.5	26
316.33 K	3.06	3.74	6.49	–	10.38	12.33	15.29	17.4	25.7
316.64 K	3.03	3.71	–	7.21	–	12.22	15.15	17.2	–
316.94 K	3.01	3.69	6.39	7.16	10.2	–	15.01	–	25.2
317.24 K	2.99	3.66	6.34	7.1	10.11	–	14.88	16.9	24.9
317.55 K	2.97	–	–	7.05	–	11.91	14.74	16.7	24.7
317.85 K	2.95	3.61	–	6.99	9.94	–	14.6	16.5	–
318.15 K	2.93	–	6.2	–	9.86	11.7	14.47	16.3	24.2
318.45 K	2.91	3.56	6.15	6.89	9.78	11.6	14.34	–	23.9
318.76 K	2.89	3.53	6.1	–	–	11.5	14.21	16.02	–
319.06 K	–	3.51	6.06	6.78	9.61	11.4	14.08	15.86	23.5
319.36 K	2.85	3.48	6.01	6.73	9.53	11.3	13.95	15.71	23.2
319.67 K	2.83	3.46	–	6.68	9.45	11.2	–	15.55	23
319.97 K	2.81	3.43	5.92	–	–	11.1	13.7	15.4	22.8
320.27 K	2.79	3.41	5.88	6.58	–	11.01	–	–	22.6
320.58 K	2.77	3.38	–	6.53	9.22	10.91	13.45	15.09	22.3
320.88 K	2.75	3.36	5.79	6.48	9.14	10.82	13.33	14.95	22.1
321.18 K	2.73	3.34	5.74	–	9.06	–	13.21	14.8	21.9
321.48 K	2.71	3.31	5.7	6.38	8.99	10.63	–	14.66	21.7
321.79 K	2.69	–	5.66	–	8.91	10.54	12.97	14.51	21.5
322.09 K	–	3.27	–	6.29	8.84	10.45	12.86	14.37	–
322.39 K	2.65	3.24	5.58	6.24	8.76	10.36	–	14.23	21.1
322.7 K	2.63	3.22	5.53	6.19	8.69	10.27	–	14.09	20.9
323 K	2.62	3.2	5.49	–	8.62	10.18	12.51	13.96	20.7
